What was measured:
[1] = removal of 2'-protecting groups by acidic hydrolysis at 25° C. (HPLC); type: physicochemical; conditions: for t0.99 (calculated time for 99% removal of the 2'-protecting group) / t1/2 (half-time): 25° C.; for t1/2 (half-time): hydrochloric acid or 0.2M glycine hydrochloride buffer; for rate of hydrolysis, times faster at pH 1.0 than at pH 3.0: pH 1.0 vs pH 3.0
Experimental: The removal of 2'-protecting groups by acidic hydrolysis at 25° C. was then investigated. Substrates as indicated below (ca 0.5-1.0 mg) were dissolved in 3.0 ml of hydrochloric acid or 0.2M glycine hydrochloride buffer at the specified pH. Aliquots (0.2 ml) of the reaction solutions were removed after suitable intervals of time, neutralized with triethylammonium bicarbonate and analyzed by HPLC (Jones "APEX ODS" column).
(b) t0.99 =calculated time for 99% removal of the 2'-protecting group.

[2] = concomitant removal of 2'-O-Ctmp group during removal of 5'-O-(9-phenylxanthen-9-yl) group (trifluoroacetic acid/pyrrole in dichloromethane); type: physicochemical; conditions: in the time required for complete removal of the 5'-O-(9-phenylxanthen-9-yl) group, 5.5 mol. equiv. trifluoroacetic acid, 16.5 mol. equiv. pyrrole, room temperature
Experimental: Following the above scheme, the latter compound was then converted by the conventional two-step procedure into the fully-protected dinucleoside phosphate in ca 83% overall yield. When a 0.025M solution of the fully-protected dinucleoside phosphate in dichloromethane was treated with 5.5 mol. equiv. of trifluoroacetic acid and 16.5 mol. equiv. of pyrrole for 30 seconds at room temperature, no starting material remained and the partially-protected dinucleoside phosphate was isolated from the products In 95.5% yield. When the acid treatment of the fully-protected dinucleoside phosphate was extended to 30 minutes under the same conditions, the partially-protected dinucleoside phosphate was isolated in 85% yield. From such results, it may be estimated that less than 0.2% concomitant removal of the 2'-O-Ctmp group occurs in the time required for the complete removal of the 5'-O-(9-phenylxanthen-9-yl) protecting group.

SMILES | rate of hydrolysis, dependence on pH ([1]; between pH 0.5 and 1.5) | t0.99 (calculated time for 99% removal of the 2'-protecting group) ([1]; pH 0.5) | t1/2 (half-time) ([1]; pH 0.5) | t0.99 (calculated time for 99% removal of the 2'-protecting group) ([1]; pH 1.0) | t1/2 (half-time) ([1]; pH 1.0) | rate of hydrolysis, times faster at pH 1.0 than at pH 3.0 [1] | t0.99 (calculated time for 99% removal of the 2'-protecting group) ([1]; pH 1.5) | t1/2 (half-time) ([1]; pH 1.5) | t0.99 (calculated time for 99% removal of the 2'-protecting group) ([1]; pH 2.0) | t1/2 (half-time) ([1]; pH 2.0) | t0.99 (calculated time for 99% removal of the 2'-protecting group) ([1]; pH 2.5) | t1/2 (half-time) ([1]; pH 2.5) | t0.99 (calculated time for 99% removal of the 2'-protecting group) ([1]; pH 3.0) | t1/2 (half-time) ([1]; pH 3.0) | t0.99 (calculated time for 99% removal of the 2'-protecting group) ([1]; pH 3.5) | t1/2 (half-time) ([1]; pH 3.5) | effect of vicinal phosphotriester group on acid-catalyzed hydrolysis of Ctmp (in words) [1] | concomitant removal of the 2'-O-Ctmp group [2] | rate of hydrolysis, dependence on pH (in words) ([1]; with decreasing pH) | stability of protecting group for the desired purposes (in words) [1]
COC1(O[C@@H]2[C@H](O)[C@@H](CO)O[C@H]2n2ccc(=O)[nH]c2=O)CCN(c2ccc(C)cc2Cl)CC1 | virtually unchanged | 223 min | 33.5 min | 236 min | 35.5 min | ~2.25 times | 233 min | 35 min | 272 min | 41 min | 345 min | 52 min | 532 min | 80 min | 1120 min | 168 min | – | – | – | –
COC1(O[C@@H]2[C@H](OP(=O)(O)OC[C@H]3O[C@@H](n4ccc(=O)[nH]c4=O)[C@H](O)[C@@H]3O)[C@@H](CO)O[C@H]2n2ccc(=O)[nH]c2=O)CCN(c2ccc(C)cc2Cl)CC1 | – | – | – | – | – | – | – | – | 143 min | 21.5 min | 156 min | 23.5 min | – | – | – | – | facilitates the acid-catalyzed hydrolysis | – | – | –
COC1(O[C@@H]2[C@H](OP(=O)(OC[C@H]3O[C@@H](n4ccc(=O)[nH]c4=O)[C@H](OC(C)=O)[C@@H]3OC(C)=O)Oc3ccccc3Cl)[C@@H](COC3(c4ccccc4)c4ccccc4Oc4ccccc43)O[C@H]2n2ccc(=O)[nH]c2=O)CCN(c2ccc(C)cc2Cl)CC1 (some centres unmarked) [fully-protected dinucleoside phosphate] | – | – | – | – | – | – | – | – | – | – | – | – | – | – | – | – | – | less than 0.2% | – | –
COC1(O[C@@H]2[C@H](O)[C@@H](CO)O[C@H]2n2ccc(=O)[nH]c2=O)CCOCC1 [reference compound] | – | – | – | 6 min | 0.9 min | 140 times | – | – | 136 min | 20.5 min | – | – | 837 min | 126 min | – | – | – | – | increases sharply with decreasing pH | –
COC1(O[C@@H]2[C@H](O)[C@@H](CO)O[C@H]2n2ccc(=O)[nH]c2=O)CCN(c2ccccc2)CC1 [reference compound] | – | – | – | 3300 min | 498 min | – | – | – | 4380 min | 660 min | – | – | – | – | – | – | – | – | – | too stable

From patent US5625046A, “Hydroxyl projecting groups for organic synthesis” (King's College London, priority 1986, dated 1997)
